Assay results: US12371662B2, “Cell-based treatment and drug discovery in Hirschsprung's disease enabled by pluripotent stem cell-derived human enteric neural crest lineages” (MEMORIAL SLOAN-KETTERING CANCER CENTER, priority 2015, dated 2025)
Where a SMILES comes first, the peptide text is derived from it. [ ]: non-standard residue; d: D form. The star is where a group is joined. Sta = CC(C)C[C@H](N)[C@@H](O)CC(=O)O; Isovaleryl = CC(C)CC(=O)*

What was measured:
rodent GSK3β homologs = conditions: cited from earlier work
[1] = test system: EDNRB−/− hESC-derived ENC precursors; test: Colon migration after transplantation of pre-treated EDNRB−/− ENC precursors into NSG mice; format: in vivo, human cells in NSG mice; conditions: EDNRB-null precursors pre-treated for 72 hours before transplantation, 2 weeks
Procedure: All mouse procedures were performed following NIH guidelines, and were approved by the local Institutional Animal Care and Use Committee (IACUC), the Institutional Biosafety Committee (IBC) as well as the Embryonic Stem Cell Research Committee (ESCRO). 3-6 week old male NSG (NOD.Cg-Prkdc^scid Il2rg^tm1Wjl/SzJ) mice or 2-3 weeks old EDNRB^s-l/s-l (SSL/LeJ) mice^39 (n=12, 6 male, 6 female) were used for these studies. […] Animals were randomly selected for the various treatment paradigms (NSG and EDNRB^s-l/s-l) but assuring for equal distribution of male/female ratio in each group (EDNRB^s-l/s-l). Animals were anesthetized with isoflurane (1%) throughout the procedure, a small abdominal incision was made, abdominal wall musculature lifted and the cecum is exposed and exteriorized. Warm saline was used to keep the cecum moist. 20 μl of cell suspension (2-4 million RFP+CD49D purified hESC-derived ENC precursors) in 70% matrigel (BD Biosciences, 354234) in PBS or 20 μl of 70% matrigel in PBS only (control grafted animals) were slowly injected into the cecum (targeting the muscle layer) using a 27-gauge needle. […]
The harvested colon samples were fixed in 4% PFA at 4° C. overnight before imaging. Imaging was performed using Maestro fluorescence imaging system (Biotechniques). […]

[2] = test system: CD49D purified EDNRB−/− hESC-derived ENC; test: Scratch (migration) assay on EDNRB−/− ENC precursors; format: cell-based, human
Procedure: The ENC cells were plated on PO/LM/FN coated (prepared as described previously^38) 96 well or 48 well culture plates (30,000/cm^2). 24 hours later the culture lawn was scratched manually using a pipette tip. The cells were given an additional 24-48 hours to migrate into the scratch area and fixed for imaging and quantification. The quantification was based on the percentage of the nuclei that are located in the scratch area after the migration period. The scratch area was defined using a reference well that was fixed immediately after scratching. Migration of cells were quantified using the open source data analysis software KNIME^41 (http://knime.org) with the “Quantification in ROI” plug-in as described in detail elsewhere^42.
The chemical compound screening was performed using the Prestwick Chemical Library®. The ENC cells were plated in 96 well plates (30,000/cm^2) and scratched manually 24 hours before addition of the compounds. The cells were treated with two concentrations of the compounds (10 μM and 1 μM). The plates were fixed 24 hours later for total plate imaging. The compounds were scores based on their ability to promote filling of the scratch in 24 hours. […] The hits were further validated to ensure reproducibility. The cells were treated with various concentrations of the selected hit compound (Pepstatin A) for dose response analysis. The optimal dose (10 μM-based on optimal response and viability) was used for follow-up experiments. For the pre-treatment experiments, cells were CD49D purified at day 11 and treated with Pepstatin A from day 12 through day 15 followed by transplantation into the colon wall of NSG mice.
To inhibit BACE2, the ENC precursors were treated with 1 μM β-Secretase Inhibitor IV (CAS 797035-11-1—Calbiochem). […] The Knockdown was confirmed by qRT-PCR measurement of BACE2 mRNA levels in cells transfected with the BACE2 siRNAs vs. the control siRNA pool (ON-TARGETplus Non-targeting Pool, Dharmacon, D-001810-10-05). The transfected cells were scratched 24 hours after plating and fixed 48 hours later for migration quantification.

Q: For `Cc1c[nH]c(-c2cnc(NCCNc3ccc(C#N)cn3)nc2-c2ccc(Cl)cc2Cl)n1` [CHIR99021, 6-(2-(4-(2,4-dichlorophenyl)-5-(4-methyl-1H-imidazol-2-yl)pyrimidin-2-ylamino)ethylamino)nicotinonitrile], which “IC50 values against rodent GSK3β homologs” value (rodent GSK3β homologs) is on record?
A: Its value is “nanomolar”.

Q: Which “rescue of in vivo migration behavior in adult colon” value [1] does the source give for `CC(C)CC(=O)N[C@H](C(=O)N[C@H](C(=O)N[C@@H](CC(C)C)[C@@H](O)CC(=O)N[C@@H](C)C(=O)N[C@@H](CC(C)C)[C@@H](O)CC(=O)O)C(C)C)C(C)C` [Pepstatin A] (Isovaleryl-VV[Sta]A[Sta]-OH) here?
A: Its value is “significant rescue of the in vivo migration behavior”.

Q: What about the “rescue of the migration defect in scratch assay” value ([2]; EDNRB−/− hESC derived NC precursors, range of concentrations, treatment started 24 hrs before scratching) of the same molecule?
A: The value was “dose-dependent, near complete rescue of the migration defect”.

Q: And the “optimal dose (based on optimal response and viability)” value ([2]; dose response analysis, EDNRB−/− ENC)?
A: Its value is 10 µM.

Q: Which “rescue of the migration defect in scratch assay” value ([2]; EDNRB−/− hESC-derived ENC, 1 μM) does the source give for BACE inhibitor IV here?
A: Its value is “rescued the migration defect”.
